According to patent publication US11566007B2, “Ras inhibitors” (Revolution Medicines, Inc., priority 2019, dated 2023):

What was measured:
NRAS Q61K = NRAS Q61K (Homo sapiens (Human), UniProt P01111+P62937, Q61K); assay: Ras-Raf (BRAF RBD) disruption / FRET / MOA assay, NRAS Q61K; format: biochemical; details: NRAS Q61K; Ras-Raf disruption/FRET/MOA assay; read-out: IC50* NRAS Q61K FRET data
Outline: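 Compounds were tested as a 10-point 3-fold dilution series from 30 μM final for their ability to drive ternary complex formation between nucleotide-loaded Ras and cyclophilin A, displacing the BRAF RBD. After 3 h at 25° C., anti-His Eu-W1024 (10 nM) and anti-GST allophycocyanin (50 nM) were added for 1.5 h. A TR-FRET ratio decrease versus DMSO gave IC50.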

[1] = tested on: NCI-H358 cells (K-Ras G12C); assay: Potency assay: pERK in NCI-H358 cells; format: cell-based, human; details: Homo sapiens, NCI-H358; H358 KRAS G12C; read-out: pERK EC50
Outline: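 4 h cpd, 37 °C; 10-pt 3-fold series, 10 mM DMSO top stock, duplicates. Readout pERK: AlphaLISA SureFire Ultra or In-Cell Western (IR-800CW secondary, DRAQ5 DNA stain). IC50, 4-PL fit vs log conc.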

Sequence of NRAS Q61K (P01111 whole entry Q61K): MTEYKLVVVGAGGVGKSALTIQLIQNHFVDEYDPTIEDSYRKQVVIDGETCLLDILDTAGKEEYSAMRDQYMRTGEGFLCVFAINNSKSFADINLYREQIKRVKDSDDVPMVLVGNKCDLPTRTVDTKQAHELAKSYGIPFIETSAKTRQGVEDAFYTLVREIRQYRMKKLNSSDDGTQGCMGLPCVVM
Sequence of NRAS Q61K (P62937 whole entry): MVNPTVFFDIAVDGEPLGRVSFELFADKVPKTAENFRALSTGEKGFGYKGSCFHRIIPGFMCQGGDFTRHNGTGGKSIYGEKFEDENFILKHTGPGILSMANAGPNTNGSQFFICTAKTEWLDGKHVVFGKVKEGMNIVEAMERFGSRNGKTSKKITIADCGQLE

Row | Structure (SMILES) | IC50 (NRAS Q61K) [nM] | EC50 [1] [nM]
1 | C=CC(=O)N1CCO[C@]2(CCN(C(=O)N(C)[C@H](C(=O)N[C@H]3Cc4nc(cs4)-c4ccc5c(c4)c(c(-c4cccnc4[C@H](C)OC)n5CC(F)(F)F)CC(C)(C)COC(=O)[C@@H]4CCCN(N4)C3=O)C(C)C)C2)C1 (atropisomer, axis not shown) [Example A593] | 100 to 1000 | < 5000
2 | CCn1c(-c2cccnc2[C@H](C)OC)c2c3cc(ccc31)-c1csc(n1)C[C@H](NC(=O)[C@H](C(C)C)N(C)C(=O)N1CCC13CN(C(=O)/C=C/CN(C)C)C3)C(=O)N1CCC[C@H](N1)C(=O)OCC(C)(C)C2 (atropisomer, axis not shown) [Example A598] | 10 to 100 | < 5000
3 | C=CC(=O)N1CCOC2(CCN(C(=O)N(C)[C@H](C(=O)N[C@H]3Cc4cccc(n4)-c4ccc5c(c4)c(c(-c4cccnc4[C@H](C)OC)n5CC(F)(F)F)CC(C)(C)COC(=O)[C@@H]4CCCN(N4)C3=O)C(C)C)CC2)C1 (atropisomer, axis not shown) [Example A607, 4-acryloyl-N-((2S)-1-(((6^3S,4S)-1^2-(2-((S)-1-methoxyethyl)pyridin-3-yl)-10,10-dimethyl-5,7-dioxo-1^1-(2,2,2-trifluoroethyl)-6^1,6^2,6^3,6^4,6^5,6^6-hexahydro-1^1H-8-oxa-1(5,3)-indola-6(1,3)-pyridazina-2(2,6)-pyridinacycloundecaphane-4-yl)amino)-3-methyl-1-oxobutan-2-yl)-N-methyl-1-oxa-4,9-diazaspiro[5.5]undecane-9-carboxamide] | 100 to 1000 | < 5000
4 | CCn1c(-c2cccnc2[C@H](C)OC)c2c3cc(ccc31)-c1csc(n1)C[C@H](NC(=O)[C@H](C(C)C)N(C)C(=O)N1CCC13CN(C(=O)/C=C/CN1CCOCC1)C3)C(=O)N1CCC[C@H](N1)C(=O)OCC(C)(C)C2 (atropisomer, axis not shown) [Example A611] | 10 to 100 | < 5000
5 | CCn1c(-c2cccnc2[C@H](C)OC)c2c3cc(ccc31)-c1cccc(c1)C[C@H](NC(=O)[C@@H](COC1CN(C(=O)C#CC(C)(C)N(C)C3CC3)C1)C(C)C)C(=O)N1CCC[C@H](N1)C(=O)OCC(C)(C)C2 (atropisomer, axis not shown) [Example A613] | > 10000 | < 5000
6 | CCn1c(-c2cccnc2[C@H](C)OC)c2c3cc(ccc31)N1CCC[C@@H](C[C@H](NC(=O)[C@H](C(C)C)N(C)C(=O)[C@H]3CCN(C(=O)C#CC(C)(C)N4CCC4)C3)C(=O)N3CCC[C@H](N3)C(=O)OCC(C)(C)C2)C1 (atropisomer, axis not shown) [Example A617] | > 10000 | < 5000
7 | C=CC(=O)N1CCC[C@H]2CN(C(=O)N(C)[C@H](C(=O)N[C@H]3Cc4nc(cs4)-c4ccc5c(c4)c(c(-c4cccnc4[C@H](C)OC)n5CC)CC(C)(C)COC(=O)[C@@H]4CCCN(N4)C3=O)C(C)C)C[C@H]21 (atropisomer, axis not shown) [Example A618] | 100 to 1000 | < 5000
8 | CCn1c(-c2cccnc2[C@H](C)OC)c2c3cc(ccc31)-c1csc(n1)C[C@H](NC(=O)[C@H](C(C)C)N(C)C(=O)N1C[C@@H]3CN(C(=O)C#CC(C)(C)N(C)C)CC[C@@H]31)C(=O)N1CCC[C@H](N1)C(=O)OCC(C)(C)C2 (atropisomer, axis not shown) [Example A625] | 100 to 1000 | < 5000
9 | C=CC(=O)N(C)[C@H]1CN(C(=O)N(C)[C@H](C(=O)N[C@H]2Cc3nc(cs3)-c3ccc4c(c3)c(c(-c3cccnc3[C@H](C)OC)n4CC)CC(C)(C)COC(=O)[C@@H]3CCCN(N3)C2=O)C(C)C)C[C@@H]1F (atropisomer, axis not shown) [Example A632] | 100 to 1000 | < 5000
10 | C=CC(=O)N(C)[C@@H]1C[C@H](C)N(C(=O)N(C)[C@H](C(=O)N[C@H]2Cc3nc(cs3)-c3ccc4c(c3)c(c(-c3cccnc3[C@H](C)OC)n4CC)CC(C)(C)COC(=O)[C@@H]3CCCN(N3)C2=O)C(C)C)C1 (atropisomer, axis not shown) [Example A633] | 10 to 100 | < 5000
11 | C=CC(=O)N(C)[C@@H]1C[C@@H](C)N(C(=O)N(C)[C@H](C(=O)N[C@H]2Cc3nc(cs3)-c3ccc4c(c3)c(c(-c3cccnc3[C@H](C)OC)n4CC)CC(C)(C)COC(=O)[C@@H]3CCCN(N3)C2=O)C(C)C)C1 (atropisomer, axis not shown) [Example A634] | 100 to 1000 | < 5000
12 | C=CC(=O)N1CCCC2(CCN(C(=O)N(C)[C@H](C(=O)N[C@H]3Cc4nc(cs4)-c4ccc5c(c4)c(c(-c4cccnc4[C@H](C)OC)n5CC)CC(C)(C)COC(=O)[C@@H]4CCCN(N4)C3=O)C(C)C)CC2)C1 (atropisomer, axis not shown) [Example A635] | 100 to 1000 | < 5000
13 | C=CC(=O)N1CC2(CCN2C(=O)N(C)[C@H](C(=O)N[C@H]2Cc3cccc(n3)-c3ccc4c(c3)c(c(-c3cccnc3[C@H](C)OC)n4CC)CC(C)(C)COC(=O)[C@@H]3CCCN(N3)C2=O)C(C)C)C1 (atropisomer, axis not shown) [Example A636] | 100 to 1000 | < 5000
14 | CCn1c(-c2cccnc2[C@H](C)OC)c2c3cc(ccc31)-c1csc(n1)C[C@H](NC(=O)C[C@@H](C)OC1CN(C(=O)C#CC(C)(C)N(C)C)C1)C(=O)N1CCC[C@H](N1)C(=O)OCC(C)(C)C2 (atropisomer, axis not shown) [Example A638] | 1000 to 10000 | < 5000
15 | C=CC(=O)N1CC[C@H](C(=O)N(C)[C@H](C(=O)N[C@H]2Cc3cccc(c3)-c3ccc4c(c3)c(c(-c3cccnc3[C@H](C)OC)n4CC)CC(C)(C)COC(=O)[C@@H]3CCCN(N3)C2=O)[C@@H](C)C(F)(F)F)C1 (atropisomer, axis not shown) [Example A640] | 1000 to 10000 | < 5000
16 | CCn1c(-c2cccnc2[C@H](C)OC)c2c3cc(ccc31)N1CCO[C@@H](C[C@H](NC(=O)[C@H](C(C)C)N(C)C(=O)C3(F)CCN(C(=O)/C=C/CN(C)C)CC3)C(=O)N3CCC[C@H](N3)C(=O)OCC(C)(C)C2)C1 (atropisomer, axis not shown) [Example A645] | > 10000 | < 5000
17 | CC#CC(=O)N1CC2(CCN2C(=O)N(C)[C@H](C(=O)N[C@H]2Cc3nc(cs3)-c3ccc4c(c3)c(c(-c3cccnc3[C@H](C)OC)n4CC)CC(C)(C)COC(=O)[C@@H]3CCCN(N3)C2=O)C(C)C)C1 (atropisomer, axis not shown) [Example A655] | 10 to 100 | < 5000
18 | C=CC(=O)N1CC[C@]2(CCN2C(=O)N(C)[C@H](C(=O)N[C@H]2Cc3nc(cs3)-c3ccc4c(c3)c(c(-c3cccnc3[C@H](C)OC)n4CC)CC(C)(C)COC(=O)[C@@H]3CCCN(N3)C2=O)C(C)C)C1 (atropisomer, axis not shown) [Example A662] | 10 to 100 | < 5000
19 | CCn1c(-c2cccnc2[C@H](C)OC)c2c3cc(ccc31)-c1csc(n1)C[C@H](NC(=O)[C@H](C(C)C)N(C)C(=O)N1CCCOC13CN(C(=O)C#CC(C)(C)N(C)C)C3)C(=O)N1CCC[C@H](N1)C(=O)OCC(C)(C)C2 (atropisomer, axis not shown) [Example A666] | > 10000 | < 5000
20 | C=CC(=O)N1CC[C@]2(COCCN2C(=O)N(C)[C@H](C(=O)N[C@H]2Cc3nc(cs3)-c3ccc4c(c3)c(c(-c3cccnc3[C@H](C)OC)n4CC)CC(C)(C)COC(=O)[C@@H]3CCCN(N3)C2=O)C(C)C)C1 (atropisomer, axis not shown) [Example A676] | 100 to 1000 | < 5000
21 | C=CC(=O)N1CC2(CCN(C(=O)N(C)[C@H](C(=O)N[C@H]3Cc4cccc(c4)-c4ccc5c(c4)c(c(-c4cccnc4[C@H](C)OC)n5CC)CC(C)(C)COC(=O)[C@@H]4CCCN(N4)C3=O)C(C)C)CC2)C1 (atropisomer, axis not shown) [Example A680] | 100 to 1000 | < 5000
22 | C=CC(=O)N1CC[C@@H]2[C@H](C1)CN2C(=O)N(C)[C@H](C(=O)N[C@H]1Cc2nc(cs2)-c2ccc3c(c2)c(c(-c2cccnc2[C@H](C)OC)n3CC)CC(C)(C)COC(=O)[C@@H]2CCCN(N2)C1=O)C(C)C (atropisomer, axis not shown) [Example A688] | 100 to 1000 | < 5000
23 | C=CC(=O)N1CCC2(CCCN(C(=O)N(C)[C@H](C(=O)N[C@H]3Cc4nc(cs4)-c4ccc5c(c4)c(c(-c4cccnc4[C@H](C)OC)n5CC)CC(C)(C)COC(=O)[C@@H]4CCCN(N4)C3=O)C(C)C)C2)CC1 (atropisomer, axis not shown) [Example A696] | 10 to 100 | < 5000
24 | CCn1c(-c2cccnc2[C@H](C)OC)c2c3cc(ccc31)-c1cccc(c1)C[C@H](NC(=O)[C@@H](COC1CN(C(=O)C#CC(C)(C)O)C1)C(C)C)C(=O)N1CCC[C@H](N1)C(=O)OCC(C)(C)C2 (atropisomer, axis not shown) [Example A708] | > 10000 | < 5000
25 | CCn1c(-c2cccnc2[C@H](C)OC)c2c3cc(ccc31)-c1csc(n1)C[C@H](NC(=O)[C@H](C(C)C)N(C)C(=O)N1CCN(C(=O)/C=C/CN(C)C)C[C@@H]1C)C(=O)N1CCC[C@H](N1)C(=O)OCC(C)(C)C2 (atropisomer, axis not shown) [Example A709] | 10 to 100 | < 5000
26 | CCn1c(-c2cccnc2[C@H](C)OC)c2c3cc(ccc31)-c1csc(n1)C[C@H](NC(=O)[C@H](C(C)C)N(C)C(=O)N1CC(N(C)C(=O)/C=C/CN(C)C)C1)C(=O)N1CCC[C@H](N1)C(=O)OCC(C)(C)C2 (atropisomer, axis not shown) [Example A710] | 10 to 100 | < 5000
27 | C=C(OC)C(=O)N1CC(N(C)C(=O)N(C)[C@H](C(=O)N[C@H]2Cc3nc(cs3)-c3ccc4c(c3)c(c(-c3cccnc3[C@H](C)OC)n4CC)CC(C)(C)COC(=O)[C@@H]3CCCN(N3)C2=O)C(C)C)C1 (atropisomer, axis not shown) [Example A713] | 100 to 1000 | < 5000
